Measurements published in publication PMC10786919, “Design-rules for stapled peptides with in vivo activity and their application to Mdm2/X antagonists” (Nature Communications, 2024).
Converted amounts (≈) assume the structure as drawn. Read-outs that look alike come from different tables or passages of the source. Positions of bridges follow the written chain, without caps; N, C: chain ends. Non-standard residues stand in square brackets, D forms with d. Residues, ends and D or L forms follow the SMILES beside them. Lys(N3) = [N-]=[N+]=NCCCC[C@H](N)C(=O)O; 2Nal = N[C@@H](Cc1ccc2ccccc2c1)C(=O)O; R8 = C=CCCCCCC[C@@](C)(N)C(=O)O; αMeE = C[C@](N)(CCC(=O)O)C(=O)O; Cba = N[C@@H](CC1CCC1)C(=O)O; S5 = C=CCCC[C@](C)(N)C(=O)O; Ahx = NCCCCCC(=O)O; βAla = NCCC(=O)O

How the values were obtained:
[1] = Lactate dehydrogenase (LDH) release assay; type: cell-based
Outline: (§1)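 Membrane damage measured as lactate dehydrogenase release (CytoTox-ONE kit) from p53-responsive β-lactamase reporter HCT116 cells plated at 8000 per well. Final DMSO 0.5%; geometric mean reported from a minimum of three biological replicates.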

[2] = tested on: CellSensor p53RE-bla HCT-116 Cell Line; settings: 72 h
Outline: (§2)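 Compound dilution series (10 points, 3-fold, 10 mM top stock in DMSO) tested on overnight-plated Ca Ski cells in RPMI1640/10% FBS and on blasticidin-selected p53RE-bla HCT-116 cells in McCoy's 5A; read-out was CellTiter-Glo 2.0 luminescence after room-temperature equilibration.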

Ca Ski cell line = settings: 72 h
Outline: as §2

in vitro = settings: Nanoclick permeability assay EC50
Outline: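 Azido-peptide permeability was read as loss of NanoBRET signal (donor 450 nm, acceptor 610 nm) after adding NanoBret618-azide at 10 μM final.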

[3] = Solubility assay (kinetic solubility, PBS pH 7); type: physicochemical; settings: for solubility kinetic: read-out: Solubility
Outline: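 Reference standards were made by diluting the 10 mM stock to 100 µM in acetonitrile:methanol:DMSO 10:80:10. Solubility in µM was calculated as the sample peak area divided by the standard peak area, multiplied by the standard concentration.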

EPSA = type: physicochemical
[4] = Experimental LogD (partition coefficient); settings: for logD: not stated, Partition Coeff LogD
HCT116 cells = test: Lactate dehydrogenase (LDH) release assay; type: cell-based
Outline: as §1

[5] = tested on: p53 responsive β-lactamase reporter in HCT116 cells; test: cells; type: cell-based; settings: read-out: p53 reporter assay EC50
Outline: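 HCT116 cells stably carrying a p53-responsive β-lactamase reporter, seeded at 8000 cells/well, with 0.5% DMSO final. Reporter activity read by ToxBLAzer Dual Screen. Values are geometric means of at least three biological replicates.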

human Mdm2 1–125 = biological target: T1, human Mdm2 1–125 (Homo sapiens, UniProt Q00987); test: Mdm2 binding by competitive fluorescence anisotropy assay (FP binding); settings: read-out: FP binding assay KD
T1 construct: GST (N); His6 (internal); TEV cleavage site (ENLYFQG) (internal); made in house; host or cells: BL21 (DE3) Rosetta T1R Escherichia coli
T1 sequence (Q00987 with tags, fused parts or gaps): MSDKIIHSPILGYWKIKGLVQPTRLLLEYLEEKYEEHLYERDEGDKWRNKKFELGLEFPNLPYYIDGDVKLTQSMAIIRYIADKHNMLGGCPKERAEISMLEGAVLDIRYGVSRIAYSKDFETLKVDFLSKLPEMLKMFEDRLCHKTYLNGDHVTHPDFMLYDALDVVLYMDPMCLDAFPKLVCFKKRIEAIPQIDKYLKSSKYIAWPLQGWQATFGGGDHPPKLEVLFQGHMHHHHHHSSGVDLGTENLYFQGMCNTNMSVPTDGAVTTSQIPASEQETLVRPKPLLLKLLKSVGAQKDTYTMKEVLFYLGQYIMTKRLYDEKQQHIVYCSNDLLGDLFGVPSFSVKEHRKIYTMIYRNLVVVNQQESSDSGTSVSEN
From the text: The TEV (tobacco etch virus) cleavage site was changed from ENLYFQS to ENLYFQG to give a fusion protein with the following sequence:
[P] is the protein concentration (Mdm2), [L] is the labeled peptide concentration, r is the anisotropy measured, r0 is the anisotropy of the free peptide, rb is the anisotropy of the Mdm2–FAM-labeled peptide complex, Kd is the dissociation constant, [L]t is the total FAM labeled peptide concentration, and [P]t is the total Mdm2 concentration. […] This value was then used to determine apparent Kd values of the respective competing ligands in subsequent competition assays in fluorescence anisotropy experiments.
The competing molecules were then titrated against the complex of the FAM-labeled peptide and protein. Apparent Kd values were determined by fitting the experimental data to equations shown below:2 r=ro+(rb−ro)×2(d^2−3e)cos(θ/3)−9/3Kd1+2(d^2−3e)cos(θ/3)−d 3 d=Kd1+Kd2+[L]st+[L]t−Pt 4 e=Lt−PtKd1+Lst+PtKd2+Kd1Kd2 5 f=−Kd1Kd2[P]t 6 θ=arcos−2d^3+9de−27f/2(d^2−3e)^3
[L]st and [L]t denote labeled ligand and total unlabeled ligand input concentrations, respectively. Kd2 is the dissociation constant of the interaction between the unlabeled ligand and the protein. In all competition experiments, it is assumed that [P]t > [L]st, otherwise considerable amounts of free labeled ligand would always be present and would interfere with measurements. […] The FAM-labeled peptide was dissolved in dimethyl sulfoxide (DMSO) at 1 mM and diluted into experimental buffer. Readings were carried out with an Envision Multilabel Reader (PerkinElmer). […] Curve-fitting was carried out using Prism 4.0 (GraphPad). […] Negative control titrations of the ligands under investigation were also carried out with the fluorescently labeled peptide (in the absence of Mdm2) to ensure no interactions were occurring between the ligands and the FAM-labeled peptide. […] Measurements were taken a minimum of three times (biological replicates) and values are reported as geometric means of the replicates.

[6] = tested on: Jump-In T-REx CHO-K1 BLA cells; test: cells; type: cell-based; settings: for EC50: read-out: TETCHO: Counterscreen EC50
[7] = pH 7, aqueous buffer, kinetic from dmso stock, pH 7, PBS

| SMILES | EC50 ([1]; LDH: Cytotoxicity assay: EC50) [µM] | EC50 [2] [µM] | EC50 (Ca Ski cell line) [µM] | cell entry EC50 (in vitro) [µM] | EPSA (EPSA; EPSA) [A^2] | LDH: Cytotoxicity assay % Effect (HCT116 cells) [%] | EC50 ([1]; LDH: Cytotoxicity assay EC50) [µM] | EC50 ([5]; 0% FBS 4Hr) [µM] | Kd (human Mdm2 1–125) [µM] | TETCHO: Counterscreen % Effect ([6]; 0% FBS 4Hr) [%] | EC50 ([6]; 0% FBS 4Hr) [µM] | solubility kinetic [3, 7] [µM] | logD [4] | further results |
| --- | --- | --- | --- | --- | --- | --- | --- | --- | --- | --- | --- | --- | --- | --- |
| CC(=O)N[C@@H](CCCCN=[N+]=[N-])C(=O)NCCC(=O)N[C@@H](CC(C)C)C(=O)N[C@H](C(=O)N[C@@H](Cc1ccccc1)C(=O)N[C@]1(C)CCCCCCC=CCCC[C@@](C)(C(=O)N[C@@H](C)C(=O)N[C@@H](C)C(=O)N[C@@H](Cc2ccccc2)C(=O)N[C@@H](C)C(=O)N[C@@H](C)C(=O)N[C@@H](Cc2ccccc2)C(N)=O)NC(=O)[C@H](CC2CCC2)NC(=O)[C@H](CCC(N)=O)NC(=O)[C@H](C)NC(=O)[C@H](Cc2c[nH]c3ccccc23)NC(=O)[C@H](Cc2ccc(O)cc2)NC(=O)[C@H](CCC(=O)O)NC1=O)[C@@H](C)O [MP-040] (Ac-[Lys(N3)][βAla]LTF[R8]EYWAQ[Cba][S5]AAFAAF-NH2; staple 6-13) | > 50.7 | 1.22 | > 49.8 | 0.439 | 204 |  |  |  |  |  |  |  |  | Solubility [3]: P.B.; Solubility ([3]; pH 7, PBS): Poorly Behaved; Partition Coeff LogD [4]: Poorly Behaved |
| CC(=O)N[C@H](C(=O)N[C@@H](CO)C(=O)N[C@@H](Cc1ccc2ccccc2c1)C(=O)N[C@]1(C)CCCCCCC=CCCC[C@@](C)(C(=O)N[C@@H](CO)C(=O)N[C@@H](C)C(=O)N[C@@H](C)C(=O)N[C@@H](CCC(=O)O)C(N)=O)NC(=O)[C@H](CC(C)C)NC(=O)[C@H](CC(C)C)NC(=O)[C@H](C)NC(=O)[C@H](Cc2c[nH]c3ccccc23)NC(=O)[C@H](Cc2ccc(O)cc2)NC(=O)[C@H](CCC(=O)O)NC1=O)[C@@H](C)O [MP-144] (Ac-TS[2Nal][R8]EYWALL[S5]SAAE-NH2; staple 4-11) |  |  |  |  |  | 83.26 | 15.6 | 5.01 | 46.7 | -3.58 | > 50 |  |  |  |
| CC(=O)N[C@H](C(=O)N[C@@H](CO)C(=O)N[C@@H](Cc1ccccc1)C(=O)N[C@]1(C)CCCCCCC=CCCC[C@@](C)(C(N)=O)NC(=O)[C@H](CC(C)C)NC(=O)[C@H](CC(C)C)NC(=O)[C@H](C)NC(=O)[C@H](Cc2c[nH]c3ccccc23)NC(=O)[C@H](Cc2ccc(O)cc2)NC(=O)[C@H](Cc2c[nH]cn2)NC1=O)[C@@H](C)O [MP-138] (Ac-TSF[R8]HYWALL[S5]-NH2; staple 4-11) |  |  |  |  |  | 0.2053 | > 50 | 4.9 | 0.0879 | 24.03 | > 50 |  |  |  |
| CC(=O)N[C@H](C(=O)N[C@@H](CO)C(=O)N[C@@H](Cc1ccc2ccccc2c1)C(=O)N[C@]1(C)CCCCCCC=CCCC[C@@](C)(C(N)=O)NC(=O)[C@H](CC(C)C)NC(=O)[C@H](CC(C)C)NC(=O)[C@H](C)NC(=O)[C@H](Cc2c[nH]c3ccccc23)NC(=O)[C@H](Cc2ccc(O)cc2)NC(=O)[C@H](CCC(=O)O)NC1=O)[C@@H](C)O [MP-145] (Ac-TS[2Nal][R8]EYWALL[S5]-NH2; staple 4-11) |  |  |  |  |  | 48.85 | 36.5 | 23.8 | 4.33 | 30.02 | > 50 |  |  |  |
| CC(=O)N[C@H](C(=O)N[C@@H](CO)C(=O)N[C@@H](Cc1ccc2ccccc2c1)C(=O)N[C@]1(C)CCCCCCC=CCCC[C@@](C)(C(=O)N[C@@H](CCC(=O)O)C(N)=O)NC(=O)[C@H](CC(C)C)NC(=O)[C@H](CC(C)C)NC(=O)[C@H](C)NC(=O)[C@H](Cc2c[nH]c3ccccc23)NC(=O)[C@H](Cc2ccc(O)cc2)NC(=O)[C@H](CCC(=O)O)NC1=O)[C@@H](C)O [MP-146] (Ac-TS[2Nal][R8]EYWALL[S5]E-NH2; staple 4-11) |  |  |  |  |  | 16.49 | > 50 | 43.3 | 0.499 | 1.205 | > 50 |  |  |  |
| CC(=O)N[C@@H](CCCCN=[N+]=[N-])C(=O)NCCC(=O)N[C@@H](CC(C)C)C(=O)N[C@H](C(=O)N[C@@H](Cc1ccccc1)C(=O)N[C@]1(C)CCCCCCC=CCCC[C@@](C)(C(=O)N[C@@H](C)C(=O)N[C@@H](C)C(=O)N[C@@H](Cc2ccccc2)C(=O)N[C@@H](C)C(=O)N[C@@](C)(CCC(=O)O)C(=O)N[C@@H](Cc2ccccc2)C(N)=O)NC(=O)[C@H](CC2CCC2)NC(=O)[C@H](CCC(N)=O)NC(=O)[C@H](C)NC(=O)[C@H](Cc2c[nH]c3ccccc23)NC(=O)[C@H](Cc2ccc(O)cc2)NC(=O)[C@H](CCC(=O)O)NC1=O)[C@@H](C)O [MP-229] (Ac-[Lys(N3)][βAla]LTF[R8]EYWAQ[Cba][S5]AAFA[αMeE]F-NH2; staple 6-13) | > 50.7 | 2.32 | 19.9 | 2.09 | 253 |  |  |  |  |  |  | 153 (≈ 366 µg/mL) | 2.93 | solubility kinetic [3]: 157 µM (≈ 376 µg/mL) |
| CC(=O)N[C@@H](CCCCN=[N+]=[N-])C(=O)NCCC(=O)N[C@@H](CC(C)C)C(=O)N[C@H](C(=O)N[C@@H](Cc1ccccc1)C(=O)N[C@]1(C)CCCCCCC=CCCC[C@@](C)(C(=O)N[C@@H](CO)C(=O)N[C@@H](C)C(=O)N[C@@H](C)C(N)=O)NC(=O)[C@H](CC2CCC2)NC(=O)[C@H](CCC(N)=O)NC(=O)[C@H](C)NC(=O)[C@H](Cc2c[nH]c3ccccc23)NC(=O)[C@H](CCC(=O)O)NC(=O)[C@H](CCC(=O)O)NC1=O)[C@@H](C)O [MP-842] | > 50.7 | 23.4 | > 49.8 | 0.297 | 216 |  |  |  |  |  |  | 157 (≈ 304 µg/mL) | 2.25 |  |
| CC(=O)N[C@@H](CCCCN)C(=O)N[C@@H](CCCCN)C(=O)N[C@@H](CCCCN)C(=O)NCCCCCC(=O)N[C@H](C(=O)N[C@@H](CO)C(=O)N[C@@H](Cc1ccccc1)C(=O)N[C@]1(C)CCCCCCC=CCCC[C@@](C)(C(=O)N[C@@H](CCC(=O)O)C(=O)N[C@@H](CC(N)=O)C(=O)N[C@@H](Cc2ccccc2)C(N)=O)NC(=O)[C@H](CC(C)C)NC(=O)[C@H](CC(C)C)NC(=O)[C@H](C)NC(=O)[C@H](Cc2c[nH]c3ccccc23)NC(=O)[C@H](Cc2ccc(O)cc2)NC(=O)[C@H](CCC(=O)O)NC1=O)[C@@H](C)O [MP-5364] (Ac-KKK[Ahx]TSF[R8]EYWALL[S5]ENF-NH2; staple 8-15) |  |  |  |  |  |  | > 50 | 2.55 | 0.0391 | 62.33 | 31.9 |  |  | EC50 ([5]; 0% FBS 16Hr): 4.96 µM; TETCHO: Counterscreen % Effect ([6]; 0% FBS 16Hr): 3.12% |
| CC(=O)N[C@@H](CCCCN=[N+]=[N-])C(=O)NCCC(=O)N[C@@H](CC(C)C)C(=O)N[C@H](C(=O)N[C@@H](Cc1ccccc1)C(=O)N[C@]1(C)CCCCCCC=CCCC[C@@](C)(C(=O)N[C@@H](CO)C(=O)N[C@@H](C)C(=O)N[C@@H](CCC(=O)O)C(N)=O)NC(=O)[C@H](CC2CCC2)NC(=O)[C@H](CCC(N)=O)NC(=O)[C@H](C)NC(=O)[C@H](Cc2c[nH]c3ccccc23)NC(=O)[C@H](Cc2ccc(O)cc2)NC(=O)[C@H](CCC(=O)O)NC1=O)[C@@H](C)O [MP-524] | > 50.7 | 1.34 | > 49.8 | 1.32 |  |  |  |  |  |  |  | 148 (≈ 300 µg/mL) | 2.1 | EPSA (EPSA): Poorly Behaved |
